Converted amounts (≈) assume the structure as drawn.
Key:
Staphylococcus aureus [1] = assay: Antibacterial activity against methicillin-susceptible Staphylococcus aureus ATCC 25923 incubated for 18 hrs by broth microdilution method; format: functional; details: ATCC 25923, 18 h
Staphylococcus aureus [2] = assay: Antibacterial activity against methicillin-susceptible Staphylococcus aureus CMCC 2603 incubated for 18 hrs by broth microdilution method; format: functional; details: CMCC 2603, 18 h
Staphylococcus aureus [3] = assay: Antibacterial activity against methicillin-susceptible Staphylococcus aureus ATCC 29213 incubated for 18 hrs by broth microdilution method; format: functional; details: ATCC 29213, 18 h
Staphylococcus aureus [4] = assay: Antibacterial activity against methicillin-susceptible Staphylococcus aureus ATCC 6538 incubated for 18 hrs by broth microdilution method; format: functional; details: ATCC 6538, 18 h
Staphylococcus aureus [5] = assay: Antibacterial activity against methicillin-resistant Staphylococcus aureus ATCC 33591 incubated for 18 hrs by broth microdilution method; format: functional; details: ATCC 33591, 18 h
Staphylococcus aureus [6] = assay: Antibacterial activity against methicillin-resistant Staphylococcus aureus ATCC 43300 incubated for 18 hrs by broth microdilution method; format: functional; details: ATCC 43300, 18 h
Escherichia coli = assay: Antibacterial activity against Escherichia coli ATCC 25922 incubated for 18 hrs by broth microdilution method; format: functional; details: ATCC 25922, 18 h
Pseudomonas aeruginosa = assay: Antibacterial activity against Pseudomonas aeruginosa ATCC 27853 incubated for 18 hrs by broth microdilution method; format: functional; details: ATCC 27853, 18 h
[7] = Cytotoxicity against HEK293A cells after 48 hrs by MTT assay; format: cell-based; details: Homo sapiens, HEK293-A
[8] = Cytotoxicity against human L02 cells after 48 hrs by MTT assay; format: cell-based; details: L02, 48 h
[9] = Solubility of compound in distilled water after 24 hrs by HPLC analysis; format: physicochemical
[10] = Octanol/water partition coefficient, log P of the compound by HPLC assay; format: physicochemical

SMILES | MIC (Staphylococcus aureus [1]) [µg/mL] | MIC (Staphylococcus aureus [2]) [µg/mL] | MIC (Staphylococcus aureus [3]) [µg/mL] | MIC (Staphylococcus aureus [4]) [µg/mL] | MIC (Staphylococcus aureus [5]) [µg/mL] | MIC (Staphylococcus aureus [6]) [µg/mL] | MIC (Escherichia coli) [µg/mL] | MIC (Pseudomonas aeruginosa) [µg/mL] | IC50 [7] [µg/mL] | IC50 [8] [µg/mL] | solubility at 24 h [9] [µM] | logP [10]
CCN1CCN(C[C@H]2CN(c3ccc(-n4cc(-c5ccccn5)cn4)c(F)c3)C(=O)O2)CC1 | > 32 | > 32 | > 32 | > 32 | > 32 | > 32 | > 32 | > 32 | 99 (≈ 220 µM) | 99 (≈ 220 µM) | 706 (≈ 318 µg/mL) | 2.19
O=C1O[C@@H](CO)CN1c1ccc(-n2cc(-c3ccccn3)cn2)c(F)c1 | – | – | – | – | – | – | – | – | > 400 | 59 (≈ 167 µM) | 56.4 (≈ 20 µg/mL) | 1.67
COC[C@H]1CN(c2ccc(-n3cc(-c4ccccn4)cn3)c(F)c2)C(=O)O1 | > 32 | > 32 | > 32 | > 32 | > 32 | > 32 | > 32 | > 32 | > 400 | > 400 | 36.2 (≈ 13.3 µg/mL) | 2.18
O=C1CNC(=O)N1C[C@H]1CN(c2ccc(-n3cc(-c4ccccn4)cn3)c(F)c2)C(=O)O1 | > 32 | > 32 | > 32 | > 32 | > 32 | > 32 | > 32 | > 32 | > 400 | > 400 | 1630 (≈ 713 µg/mL) | 1.25
CN(CCO)C[C@H]1CN(c2ccc(-n3cc(-c4ccccn4)cn3)c(F)c2)C(=O)O1 | > 32 | > 32 | > 32 | > 32 | > 32 | > 32 | > 32 | > 32 | 367 (≈ 892 µM) | 134 (≈ 326 µM) | 669 (≈ 275 µg/mL) | 1.44
CN(CCC#N)C[C@H]1CN(c2ccc(-n3cc(-c4ccccn4)cn3)c(F)c2)C(=O)O1 | > 32 | > 32 | > 32 | > 32 | > 32 | > 32 | > 32 | > 32 | > 400 | > 400 | 64.5 (≈ 27.1 µg/mL) | 1.9
CCNC(=O)NC[C@H]1CN(c2ccc(-n3cc(-c4ccccn4)cn3)c(F)c2)C(=O)O1 | 8 (≈ 18.8 µM) | 8 (≈ 18.8 µM) | 8 (≈ 18.8 µM) | 8 (≈ 18.8 µM) | 8 (≈ 18.8 µM) | 8 (≈ 18.8 µM) | > 32 | > 32 | 29 (≈ 68.3 µM) | > 400 | 222 (≈ 94.1 µg/mL) | 2.45
CN1CCN(C[C@H]2CN(c3ccc(-n4cc(-c5ccccn5)cn4)c(F)c3)C(=O)O2)CC1 | > 32 | > 32 | > 32 | > 32 | > 32 | > 32 | > 32 | > 32 | 70 (≈ 160 µM) | 70 (≈ 160 µM) | 1690 (≈ 738 µg/mL) | 2.2
O=C1CSC(=O)N1C[C@H]1CN(c2ccc(-n3cc(-c4ccccn4)cn3)c(F)c2)C(=O)O1 | > 32 | > 32 | > 32 | > 32 | > 32 | > 32 | > 32 | > 32 | 283 (≈ 624 µM) | > 400 | 26.9 (≈ 12.2 µg/mL) | 2.18
O=C1O[C@@H](CN2CCC(O)CC2)CN1c1ccc(-n2cc(-c3ccccn3)cn2)c(F)c1 | > 32 | > 32 | > 32 | > 32 | > 32 | > 32 | > 32 | > 32 | > 400 | > 400 | 45.9 (≈ 20.1 µg/mL) | 1.63
O=C1O[C@@H](CN2CCOCC2)CN1c1ccc(-n2cc(-c3ccccn3)cn2)c(F)c1 | > 32 | > 32 | > 32 | > 32 | > 32 | > 32 | > 32 | > 32 | > 400 | > 400 | 109 (≈ 46.2 µg/mL) | 2
O=C1O[C@@H](CN2CCCCC2)CN1c1ccc(-n2cc(-c3ccccn3)cn2)c(F)c1 | 32 (≈ 75.9 µM) | > 32 | 32 (≈ 75.9 µM) | 32 (≈ 75.9 µM) | 32 (≈ 75.9 µM) | 32 (≈ 75.9 µM) | > 32 | > 32 | > 400 | > 400 | 219 (≈ 92.4 µg/mL) | 3.1
CNC(=O)[C@H]1CN(c2ccc(-n3cc(-c4ccccn4)cn3)c(F)c2)C(=O)O1 | 8 (≈ 21 µM) | 8 (≈ 21 µM) | 8 (≈ 21 µM) | 8 (≈ 21 µM) | 16 (≈ 42 µM) | 16 (≈ 42 µM) | > 32 | > 32 | 342 (≈ 897 µM) | 217 (≈ 569 µM) | 26.2 (≈ 9.99 µg/mL) | 1.39
CS(=O)(=O)NC[C@H]1CN(c2ccc(-n3cc(-c4ccccn4)cn3)c(F)c2)C(=O)O1 | > 64 | > 64 | > 64 | > 64 | > 64 | > 64 | > 32 | > 32 | 314 (≈ 728 µM) | > 400 | 2.3 (≈ 0.992 µg/mL) | 1.38
CONC(=O)[C@H]1CN(c2ccc(-n3cc(-c4ccccn4)cn3)c(F)c2)C(=O)O1 | 16 (≈ 40.3 µM) | 16 (≈ 40.3 µM) | 16 (≈ 40.3 µM) | 16 (≈ 40.3 µM) | 16 (≈ 40.3 µM) | 16 (≈ 40.3 µM) | > 32 | > 32 | > 400 | > 400 | 78.1 (≈ 31 µg/mL) | ≥ 1.58
CCC(=O)NC[C@H]1CN(c2ccc(-n3cc(-c4ccccn4)cn3)c(F)c2)C(=O)O1 | 4 (≈ 9.77 µM) | 4 (≈ 9.77 µM) | 4 (≈ 9.77 µM) | 4 (≈ 9.77 µM) | 4 (≈ 9.77 µM) | 4 (≈ 9.77 µM) | > 32 | > 32 | 389 (≈ 950 µM) | 204 (≈ 498 µM) | 147 (≈ 60 µg/mL) | 2.2
O=C1CCC(=O)N1C[C@H]1CN(c2ccc(-n3cc(-c4ccccn4)cn3)c(F)c2)C(=O)O1 | > 32 | > 32 | > 32 | > 32 | > 32 | > 32 | > 32 | > 32 | > 400 | > 400 | 45.3 (≈ 19.7 µg/mL) | 1.58
O=C1OC(Cn2ccnc2)CN1c1ccc(-n2cc(-c3ccccn3)cn2)c(F)c1 (single isomer, unassigned) | > 32 | > 32 | > 32 | > 32 | > 32 | > 32 | > 32 | > 32 | > 400 | 350 (≈ 865 µM) | 12.3 (≈ 4.97 µg/mL) | 1.73
O=C1O[C@@H](Cn2ccnn2)CN1c1ccc(-n2cc(-c3ccccn3)cn2)c(F)c1 | 4 (≈ 9.87 µM) | 4 (≈ 9.87 µM) | 4 (≈ 9.87 µM) | 4 (≈ 9.87 µM) | 4 (≈ 9.87 µM) | 4 (≈ 9.87 µM) | > 32 | > 32 | 225 (≈ 555 µM) | 49 (≈ 121 µM) | 247 (≈ 100 µg/mL) | 2
O=C1O[C@@H](CSc2cccs2)CN1c1ccc(-n2cc(-c3ccccn3)cn2)c(F)c1 | > 32 | > 32 | > 32 | > 32 | > 32 | > 32 | > 32 | > 32 | > 400 | > 400 | 8.5 (≈ 3.85 µg/mL) | 4.29
NC(=O)[C@H]1CN(c2ccc(-n3cc(-c4ccccn4)cn3)c(F)c2)C(=O)O1 | 16 (≈ 43.6 µM) | 16 (≈ 43.6 µM) | 16 (≈ 43.6 µM) | 16 (≈ 43.6 µM) | 16 (≈ 43.6 µM) | 16 (≈ 43.6 µM) | > 32 | > 32 | 152 (≈ 414 µM) | 119 (≈ 324 µM) | 27.2 (≈ 9.99 µg/mL) | 1.59
O=C1O[C@@H](CN2CCN(CCO)CC2)CN1c1ccc(-n2cc(-c3ccccn3)cn2)c(F)c1 | > 32 | > 32 | > 32 | > 32 | > 32 | > 32 | > 32 | > 32 | > 400 | > 400 | 125 (≈ 58.1 µg/mL) | 1.09
COC(=O)NC[C@H]1CN(c2ccc(-n3cc(-c4ccccn4)cn3)c(F)c2)C(=O)O1 | 4 (≈ 9.72 µM) | 4 (≈ 9.72 µM) | 4 (≈ 9.72 µM) | 4 (≈ 9.72 µM) | 4 (≈ 9.72 µM) | 4 (≈ 9.72 µM) | > 32 | > 32 | 306 (≈ 744 µM) | 71 (≈ 173 µM) | 34.1 (≈ 14 µg/mL) | 2.03
CN(C)S(=O)(=O)NC[C@H]1CN(c2ccc(-n3cc(-c4ccccn4)cn3)c(F)c2)C(=O)O1 | > 32 | > 32 | > 32 | > 32 | > 32 | > 32 | > 32 | > 32 | 249 (≈ 541 µM) | 158 (≈ 343 µM) | 472 (≈ 217 µg/mL) | 1.38

From ChEMBL document CHEMBL3739261, “Synthesis and antibacterial activity evaluation of C-5 side chain modified analogues of FYL-66, a potential agent against methicillin-resistant Staphylococcus aureus” (Medchemcomm, 2015)
